Laboratory results published in BindingDB's records for doi:10.1021/jm9004225 (National Institute On Drug Abuse and The National Institute …, 2009).

Assay: Displacement of [3H]U69593 from human recombinant kappa opioid receptor expressed in CHO cells

With `CC[C@]12CCN(C)C[C@H]1Oc1ccc(O)cc12` [4aR,9aS-(+)-cis-4a-Ethyl-2-methyl-1,2,3,4,4a,9a-hexahydrobenzofuro[2,3-c]pyridin-6-ol] as the compound, how does the Ki read?
Its Ki is over 10 µM.
